Where two headings read alike, the source gives them in different places.
Assays:
Format in all cases: cell-based
[1] = tested on: FOXM1^A2 mRNA and FOXM1^BC mRNA; test: Splicing assay (FOXM1), qPCR of isoform mRNAs
Outline: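 RT-qPCR read-out after 24 h compound exposure at 37° C., 0.2% DMSO, top dose 10 μM with 4-fold 8-point dilutions, 20,000 cells per well. Copy numbers from plasmid standard curves, PPIA-normalized, expressed as isoform ratio relative to DMSO.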

A-673 cells = test: Cell viability, crystal violet staining; conditions: Homo sapiens, A673, cell viability
Outline: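 Readout is absorbance at 570 nm of crystal violet, taken up in 0.1 M sodium citrate in 50% ethanol after staining with 0.5% dye in 25% methanol. Plates held 5×10^3 cells per well, and compounds were added one day after seeding for 72 hours. Data are relative to vehicle, mean±SE.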

IKBKAP^Δ20 mRNA = test: IKBKAP splicing assay, qPCR; conditions: 24 hours of incubation
Method: (§1) Various cells lines were treated with the SMSMs described herein. RNA was then isolated, cDNA synthesized, qPCR performed and the levels of IKBKAP targets of the SMSMs were determined.
(§2) On the day of the experiment, a 96-well plate was seeded with the cell lines of interest. The cells were diluted with full growth media to a concentration of 2.0×10^5 cells/mL and 100 μL of cells were added to each well (20,000 cells per well). The cells were treated with a compound immediately after plating.
(§3) The compounds were then added to the cell plate using the HP compound dispenser. In the initial experiment, a top concentration of 10 μM and an 8 point 4-fold dilution scheme was used. The stock compounds were made at a concentration of 5 mM, and the DMSO concentration was set to 0.2%. DMSO was used to normalize all the compound-containing wells and the untreated cells.
(§4) The treated cells were incubated at 37° C. in a 5% CO2 incubator for the desired amount of time. Plates were placed in a plastic bag with a wet paper towel to prevent evaporation.
(§5) RNA was isolated using the Cells to CT kit (ThermoFisher, AM1728). The cells were washed once with 100 μL cold PBS. 50 μL of lysis buffer was added to each well/tube (49.5 μL lysis buffer+0.5 μL DNase I per well/tube). The lysis reaction was mixed and incubated at room temperature for 5 minutes. 5 μL of stop solution was added directly into each cell lysis reaction and mixed by pipetting up and down 5 times. The plates/tubes were incubated at room temperature for 2 minutes then placed on ice if the cDNA synthesis was to be performed immediately. Otherwise, the plates/tubes were stored at −80° C.
(§6) cDNA synthesis reactions were then performed. 40 μL RT master mix was added to PCR tubes or plate wells. 10 μL of RNA was added to each tube/well. The RT thermal cycler program was then run and tubes or plate wells were incubated at 37° C. for 1 hour, then at 95° C. for 5 minutes to deactivate the enzyme.
(§7) The qPCR was performed using a QuantStudio 6 instrument (ThermoFisher) and the following cycling conditions and according to the tables below. All samples and standards were analyzed in triplicate. Cycle 1: 2 minutes at 50° C. Cycle 2: 10 minutes at 95° C. Cycle 3 (repeat 40 times): 15 seconds at 95° C., 1 minute at 60° C.
(§8) The determined IKBKAP^FL and […] isoform quantities were then used to determine the IKBKAP^FL: IKBKAP^Δ20 ratio at increasing SMSM compound concentrations. The PPIA quantities were used in the normalization to account of cell proliferation effects of the compounds.
(§9) An assay to measure the IKBKAP^FL mRNA and IKBKAP^Δ20 mRNA simultaneously in cell wells was performed. The RNA values were measured relative to DMSO control and also included a housekeeping gene, PPIA to ensure data was consistent. The mRNA values were measured after 24 hours of incubation with the SMSM compounds.

IKBKAP^FL mRNA = test: IKBKAP splicing assay, qPCR; conditions: 24 hours of incubation
Method: as §1, §2, §3, §4, §5, §6, §7, §8, §9

[2] = FoxM1 BC mRNA decrease (exon included), read-out: Splice IC50 (nM) FoxM1 BC mRNA decrease (exon included)
[3] = read-out: Splice EC50 (nM) FoxM1 A mRNA increase (exon excluded)
[4] = read-out: A-673 IC50 (nM) Cell viability
[5] = 24 h, FoxM1 BC mRNA decrease (exon included), 0.1-1000 nM, 24 hours, read-out: Splice IC50 (nM), FoxM1 BC mRNA decrease (exon included)
[6] = FoxM1 A mRNA increase (exon excluded), 0.1-1000 nM, 24 hours, read-out: Splice EC50 (nM), FoxM1 A mRNA increase (exon excluded)
[7] = read-out: A-673 IC50 (nM), Cell viability

Row | Structure (SMILES) | IC50 (A-673 cells; [4]) [nM] | IC50 (IKBKAP^Δ20 mRNA) [nM] | EC50 (IKBKAP^FL mRNA) [nM] | IC50 [1, 5] [nM] | EC50 [1, 6] [nM] | IC50 (A-673 cells; [7]) [nM] | also measured
1 | CN(c1ccc(-c2cc(F)c(-c3cn[nH]c3)cc2O)nn1)[C@@H]1C[C@H]2CC[C@@H](C1)N2 [compound 161, 2-(6-(((1R,3s,5S)-8-azabicyclo[3.2.1]octan-3-yl)(methyl)amino)pyridazin-3-yl)-4-fluoro-5-(1H-pyrazol-4-yl)phenol] | < 10 | < 200 | < 100 |  |  |  | IC50 [1, 2]: < 10 nM; EC50 [1, 3]: < 10 nM
2 | CN(c1ccc(-c2ccc(-c3cn[nH]c3)cc2O)nn1)[C@@H]1C[C@H]2COC[C@@H](C1)N2 [compound 154, 2-(6-(((1R,5S,7r)-3-oxa-9-azabicyclo[3.3.1]nonan-7-yl)(methyl)amino)pyridazin-3-yl)-5-(1H-pyrazol-4-yl)phenol] | 10 to 100 |  | 351 to 1000 |  |  |  | IC50 [1, 2]: 10 to 100 nM; EC50 [1, 3]: 10 to 100 nM
3 | Cc1cn(-c2ccc(-c3ccc(N(C)[C@@H]4C[C@H]5CC[C@@H](C4)N5)nn3)c(O)c2)cn1 [compound 218, 2-(6-(((1R,3s,5S)-8-azabicyclo[3.2.1]octan-3-yl)(methyl)amino)pyridazin-3-yl)-5-(4-methyl-1H-imidazol-1-yl)phenol] |  | > 1000 | 351 to 1000 | < 10 | < 10 | 10 to 100 | 
4 | Oc1cc(-c2cn[nH]c2)c(F)cc1-c1ccc(O[C@@H]2C[C@H]3CCC[C@@H](C2)N3)nn1 [compound 278, 2-(6-(((1R,3s,5S)-9-azabicyclo[3.3.1]nonan-3-yl)oxy)pyridazin-3-yl)-4-fluoro-5-(1H-pyrazol-4-yl)phenol] |  | < 200 | 101 to 350 |  |  | 10 to 100 | 
5 | CN(c1ccc(-c2ccc(-n3ccnc3)cc2O)nn1)[C@@H]1C[C@H]2CC[C@@H](C1)N2 [compound 217, 2-(6-(((1R,3s,5S)-8-azabicyclo[3.2.1]octan-3-yl)(methyl)amino)pyridazin-3-yl)-5-(1H-imidazol-1-yl)phenol] |  | 201 to 1000 | 351 to 1000 | 10 to 100 | < 10 | 10 to 100 | 
6 | CN(c1ccc(-c2ccc(-c3cnn(C)c(=O)c3)cc2O)nn1)[C@@H]1C[C@H]2CC[C@@H](C1)N2 [compound 238, 5-(4-(6-(((1R,3s,5S)-8-azabicyclo[3.2.1]octan-3-yl)(methyl)amino)pyridazin-3-yl)-3-hydroxyphenyl)-2-methylpyridazin-3(2H)-one] |  | 201 to 1000 | 101 to 350 | 10 to 100 | < 10 | 10 to 100 | 
7 | CN(c1ccc(-c2cc3cccnc3cc2O)nn1)[C@@H]1C[C@H]2CC[C@@H](C1)N2 [compound 162, 6-(6-(((1R,3s,5S)-8-azabicyclo[3.2.1]octan-3-yl)(methyl)amino)pyridazin-3-yl)quinolin-7-ol] | 251 to 500 | 201 to 1000 |  |  |  |  | 
8 | CN(c1ccc(-c2ccc(-c3cn[nH]c3)cc2O)nn1)C1[C@H]2CN(C(=O)CCN)C[C@@H]12 (stereo partly drawn) [compound 315, 3-amino-1-((1R,5S)-6-((6-(2-hydroxy-4-(1H-pyrazol-4-yl)phenyl)pyridazin-3-yl)(methyl)amino)-3-azabicyclo[3.1.0]hexan-3-yl)propan-1-one] |  | > 1000 | > 1000 |  |  |  | 
9 | CN(c1ccc(-c2cc3oc(C(=O)NC4CC4)cc3cc2O)nn1)[C@@H]1C[C@H]2CCC[C@@H](C1)N2 [compound 296, 6-(6-(((1R,3s,5S)-9-azabicyclo[3.3.1]nonan-3-yl)(methyl)amino)pyridazin-3-yl)-N-cyclopropyl-5-hydroxybenzofuran-2-carboxamide] |  |  |  | 10 to 100 | < 10 | 101 to 250 | 
10 | CN(c1ccc(-c2cc3oc(=O)n(C)c3cc2O)nn1)[C@@H]1C[C@H]2CC[C@@H](C1)N2 [compound 164, 6-(6-(((1R,3s,5S)-8-azabicyclo[3.2.1]octan-3-yl)(methyl)amino)pyridazin-3-yl)-5-hydroxy-3-methylbenzo[d]oxazol-2(3H)-one] | 251 to 500 |  |  |  |  |  | IC50 [1, 2]: 10 to 100 nM; EC50 [1, 3]: 10 to 100 nM
11 | CN(c1ccc(-c2ccc(-n3cccn3)cc2O)nn1)[C@@H]1C[C@H]2CC[C@@H](C1)N2 [compound 220, 2-(6-(((1R,3s,5S)-8-azabicyclo[3.2.1]octan-3-yl)(methyl)amino)pyridazin-3-yl)-5-(1H-pyrazol-1-yl)phenol] |  |  |  | 10 to 100 | < 10 | 10 to 100 | 
12 | CN(c1ccc(-c2ccc(-c3cc(=O)n(C)cn3)cc2O)nn1)[C@H]1C[C@]2(C)CCC[C@](C)(C1)N2 [compound 266, 6-(4-(6-(((1R,3s,5S)-1,5-dimethyl-9-azabicyclo[3.3.1]nonan-3-yl)(methyl)amino)pyridazin-3-yl)-3-hydroxyphenyl)-3-methylpyrimidin-4(3H)-one] |  | < 200 | < 100 |  |  | 10 to 100 | 
13 | [2H]C([2H])([2H])n1ncc(-c2ccc(-c3ccc(N(C)C4CC5CCCC(C4)N5)nn3)c(O)c2)cc1=O [compound 281, 5-(4-(6-(((1R,3s,5S)-9-azabicyclo[3.3.1]nonan-3-yl)(methyl)amino)pyridazin-3-yl)-3-hydroxyphenyl)-2-(methyl-d3)pyridazin-3(2H)-one] |  |  |  | < 10 | < 10 | < 10 | 
14 | Cc1nnc(-c2ccc(-c3ccc(N(C)[C@@H]4C[C@H]5CC[C@@H](C4)N5)nn3)c(O)c2)o1 [compound 219, 2-(6-(((1R,3s,5S)-8-azabicyclo[3.2.1]octan-3-yl)(methyl)amino)pyridazin-3-yl)-5-(5-methyl-1,3,4-oxadiazol-2-yl)phenol] |  |  |  | 10 to 100 | 10 to 100 | > 1000 | 
15 | Cc1cnn(-c2ccc(-c3ccc(O[C@@H]4C[C@H]5CC[C@@H](C4)N5)nn3)c(O)c2)c1 [compound 249, 2-(6-(((1R,3s,5S)-8-azabicyclo[3.2.1]octan-3-yl)oxy)pyridazin-3-yl)-5-(4-methyl-1H-pyrazol-1-yl)phenol] |  |  |  | 251 to 500 | 101 to 250 | 501 to 1000 | 
16 | CC1(C)CC(N(c2ccc(-c3ccc(-c4cn[nH]c4)cc3O)nn2)C2CC2)CC(C)(C)N1 [compound 129, 2-(6-(cyclopropyl(2,2,6,6-tetramethylpiperidin-4-yl)amino)pyridazin-3-yl)-5-(1H-pyrazol-4-yl)phenol] | 251 to 500 |  |  |  |  |  | IC50 ([1]; 24 h, LP-LoVo cells, 24 hours, table does not say EC50 or IC50, read-out: FOXM1): 1 to 10 nM; IC50 ([1]; 24 h, MDA-MB-231-luc cells, 24 hours, table does not say EC50 or IC50, read-out: FOXM1): < 1 nM; IC50 ([1]; Homo sapiens, A673, 24 h, A-673 cells, 24 hours, table does not say EC50 or IC50, read-out: FOXM1): < 1 nM; IC50 ([1]; Homo sapiens, A-375, 24 h, A-375 cells, 24 hours, table does not say EC50 or IC50, read-out: FOXM1): < 1 nM; IC50 ([1]; Homo sapiens, MDA-MB-157, 24 h, MDA-MB-157 cells, 24 hours, table does not say EC50 or IC50, read-out: FOXM1): < 1 nM; IC50 ([1]; Homo sapiens, SK-OV-3, 24 h, SKOV3 cells, 24 hours, table does not say EC50 or IC50, read-out: FOXM1): 1 to 10 nM; IC50 ([1]; Homo sapiens, Z-138, 24 h, Z-138 cells, 24 hours, table does not say EC50 or IC50, read-out: FOXM1): < 1 nM
